Where a name gives a salt, the structure may show the parent alone.

The conditions of series [1]: patients treated with AChE inhibitor; cited from earlier work.
For the next series, the target named is T1, Human M4 (Homo sapiens, UniProt P08173).
T1 sequence (P08173 1-479): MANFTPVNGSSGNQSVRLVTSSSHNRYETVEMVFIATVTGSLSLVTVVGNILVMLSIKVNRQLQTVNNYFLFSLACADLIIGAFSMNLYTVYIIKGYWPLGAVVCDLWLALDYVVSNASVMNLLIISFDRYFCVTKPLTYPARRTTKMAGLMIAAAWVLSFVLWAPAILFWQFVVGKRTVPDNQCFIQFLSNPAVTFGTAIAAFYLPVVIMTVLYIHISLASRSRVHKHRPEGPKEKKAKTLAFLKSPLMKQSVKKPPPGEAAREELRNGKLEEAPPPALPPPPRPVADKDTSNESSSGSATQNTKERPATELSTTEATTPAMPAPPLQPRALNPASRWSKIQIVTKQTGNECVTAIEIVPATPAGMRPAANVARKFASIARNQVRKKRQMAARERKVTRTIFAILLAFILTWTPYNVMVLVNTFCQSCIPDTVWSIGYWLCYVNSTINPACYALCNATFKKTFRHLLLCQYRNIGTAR
Put plainly: mAChR M4 cell-based functional assay (calcium flux, potentiation of EC20 acetylcholine response). Set-up: Emax: dose or concentration left out as unconfirmed. (Calcium assays in cells follow changes in intracellular calcium, usually with a dye or a luminescent sensor.)

The conditions of series [2]: Alzheimer's disease patients; cited from earlier work.
The conditions of series [3]: similar profiles to known antipsychotic drugs, without causing catalepsy; cited from earlier work.

As for `Nc1c2c(nc3ccccc13)CCCC2` [tacrine], the “patients with elevated liver transaminases” value in series [1] is “about 30%”.
Consider `Cc1nnc2sc3c(N4CCCC4)nccc3c2c1C` [Compound 6, 3,4-dimethyl-8-pyrrolidin-1-yl-pyrido[4′,3′:4,5]thieno[2,3-c]pyridazine hydrochloride], for which, at Human M4, the EC50 (as a rule, the concentration at which the effect is half-maximal) turned out to be 23.6 nM and the Emax (in general, the size of the effect at its maximum, as opposed to the concentration needed) was 73%.
As for `COc1ccc(CNc2nccc3c2sc2nnc(Cl)c(C)c23)cc1F` [Compound 36, 3-chloro-N-(3-fluoro-4-methoxybenzyl)-4-methylpyrido[4′,3′:4,5]thieno[2,3-c]pyridazin-8-amine], on Human M4, the EC50 was found to be 185 nM and the Emax is 97.6%.
Taken in the same sequence, the figures for `Cc1nnc2sc3c(NC4CN(c5ncc(F)cn5)C4)nccc3c2c1C` [Compound 12, N-[1-(5-fluoropyrimidin-2-yl)azetidin-3-yl]-3,4-dimethyl-pyrido[4′,3′:4,5]thieno[2,3-c]pyridazin-8-amine hydrochloride] were 18.2 nM and 77.4%.
In the same order, the values of `Cc1c(Cl)nnc2sc3c(NC4CN(c5ncc(C(F)(F)F)cn5)C4)nccc3c12` [Compound 33, 3-chloro-4-methyl-N-(1-(5-(trifluoromethyl)pyrimidin-2-yl)azetidin-3-yl)pyrido[4′,3′:4,5]thieno[2,3-c]pyridazin-8-amine, 2,2,2-trifluoroacetic acid salt] are 53.9 nM and 85.3%.
Take `Cc1nnc2sc3c(NC4CC4)nccc3c2c1C` [Compound 8, N-cyclopropyl-3,4-dimethyl-pyrido[4′,3′:4,5]thieno[2,3-c]pyridazin-8-amine hydrochloride]: on Human M4, the EC50 turned out to be 12.1 nM and the Emax came out at 74.8%.
Taken in the same sequence, the figures for `Cc1nnc2sc3c(NC4CCC4)nccc3c2c1C` [Compound 7, N-cyclobutyl-3,4-dimethyl-pyrido[4′,3′:4,5]thieno[2,3-c]pyridazin-8-amine hydrochloride] were 59.8 nM and 80.2%.
Take `Cc1cc(C)c2c(n1)sc1c(N(C)C)nccc12` [Compound 4, N,N,2,4-tetramethylthieno[2,3-b:5,4-c′]dipyridin-8-amine]: at Human M4, the concentration for a half-maximal effect (EC50) turned out to be 202 nM and the Emax stood at 81.9%.
As for `Cc1c(C(F)F)nnc2sc3c(N4CC5(COC5)C4)nccc3c12` [Compound 41, 6-(3-(difluoromethyl)-4-methylpyrido[4′,3′:4,5]thieno[2,3-c]pyridazin-8-yl)-2-oxa-6-azaspiro[3.3]heptane], at Human M4, the EC50 was found to be 1880 nM and the maximal response (Emax) came to 54.8%.
Turning to `Cc1nnc2sc3c(NCc4ccc(C(C)(C)O)c(F)c4)nccc3c2c1C` [Compound 20, 2-[4-[[(3,4-dimethylpyrido[4′,3′:4,5]thieno[2,3-c]pyridazin-8-yl)amino]methyl]-2-fluoro-phenyl]propan-2-ol], on Human M4, the EC50 amounted to 39.6 nM and the maximal response (Emax) was 85.6%.
In the same order, the values of `COc1ccc(CNc2nccc3c2sc2nnc(OC)c(C)c23)cc1` [Compound 37, 3-Methoxy-N-(4-methoxybenzyl)-4-methylpyrido[4′,3′:4,5]thieno[2,3-c]pyridazin-8-amine] are 562 nM and 76.4%.
Take `Cc1cc(C)c2c(n1)sc1c(NC3CCCC3)nccc12` [Compound 1, N-cyclopentyl-2,4-dimethylthieno[2,3-b: 5,4-c]dipyridin-8-amine]: on Human M4, the EC50 was found to be 124 nM and the Emax came to 67%.
Taken in the same sequence, the figures for `Cc1nc2sc3c(N4CCCC4)nccc3c2c(C)c1Cl` [Compound 30, 3-chloro-2,4-dimethyl-8-(pyrrolidin-1-yl)thieno[2,3-b:5,4-c′]dipyridine] were 714 nM and 79.5%.
Taken in the same sequence, the figures for `Cc1nc2sc3c(NCc4ccc(C(C)(C)O)cc4)nccc3c2c(C)c1Cl` [Compound 29, 2-(4-(((3-chloro-2,4-dimethylthieno[2,3-b:5,4-c′]dipyridin-8-yl)amino)methyl)phenyl)propan-2-ol] were 1540 nM and 72.9%.
For `Cc1cc(C)c2c(n1)sc1c(NC3CN(c4ncc(C(F)(F)F)cn4)C3)nccc12` [Compound 24, 2,4-dimethyl-N-(1-(5-(trifluoromethyl)pyrimidin-2-yl)azetidin-3-yl)thieno[2,3-b:5,4-c′]dipyridin-8-amine], on Human M4, the EC50 turned out to be 150 nM and the Emax was determined as 80.1%.
For `Cc1nc2sc3c(NCc4ccc(C(C)(C)O)c(F)c4)nccc3c2c(C)c1Cl` [Compound 31, 2-(4-(((3-chloro-2,4-dimethylthieno[2,3-b:5,4-c′]dipyridin-8-yl)amino)methyl)-2-fluorophenyl)propan-2-ol], on Human M4, the EC50 was found to be 2630 nM and the Emax stood at 76.6%.
On to `COc1ccc(CNc2nccc3c2sc2nc(C)c(Cl)c(C)c23)cc1` [Compound 28, 3-Chloro-N-(4-methoxybenzyl)-2,4-dimethylthieno[2,3-b:5,4-c′]dipyridin-8-amine], for which, on Human M4, the EC50 amounted to 4970 nM and the Emax came out at 60.8%.
In the same order, the values of `Cc1nnc2sc3c(N4CCCC4)ncc(Cl)c3c2c1C` [Compound 23, 5-Chloro-3,4-dimethyl-8-pyrrolidin-1-yl-pyrido[4′,3′:4,5]thieno[2,3-c]pyridazine Hydrochloride] are 351 nM and 36.5%.
Taken in the same sequence, the figures for `Cc1nnc2sc3c(NC4CN(c5ncc(C(F)(F)F)cn5)C4)nccc3c2c1C` [Compound 10, 3,4-dimethyl-N-[1-[5-(trifluoromethyl)pyrimidin-2-yl]azetidin-3-yl]pyrido[4′,3′:4,5]thieno[2,3-c]pyridazin-8-amine hydrochloride] were 67.1 nM and 74.4%.
Taken in the same sequence, the figures for `Cc1c(Cl)nnc2sc3c(NC4CCC4)nccc3c12` [Compound 34, 3-chloro-N-cyclobutyl-4-methylpyrido[4′,3′:4,5]thieno[2,3-c]pyridazin-8-amine] were 23.6 nM and 91.4%.
Consider `Cc1cc(C)c2c(n1)sc1c(N3CCCC3)nccc12` [Compound 2, 2,4-dimethyl-8-(pyrrolidin-1-yl)thieno[2,3-b:5,4-c′]dipyridine], for which, on Human M4, the EC50 is 233 nM and the Emax amounted to 97.8%.
In the same order, the values of `Cc1nnc2sc3c(NCc4ccc(C(C)(C)O)cc4F)nccc3c2c1C` [Compound 21, 2-[4-[[(3,4-dimethylpyrido[4′,3′:4,5]thieno[2,3-c]pyridazin-8-yl)amino]methyl]-3-fluoro-phenyl]propan-2-ol] are 78.9 nM and 80%.
As to `COc1nnc2sc3c(NC4CN(c5ncc(C(F)(F)F)cn5)C4)nccc3c2c1C` [Compound 38, 3-methoxy-4-methyl-N-(1-(5-(trifluoromethyl)pyrimidin-2-yl)azetidin-3-yl)pyrido[4′,3′:4,5]thieno[2,3-c]pyridazin-8-amine], on Human M4, the half-maximal effective concentration (EC50) turned out to be 280 nM and the maximum response (Emax) was determined as 80.6%.
`Cc1nnc2sc3c(NCc4ccc(F)c(F)c4)nccc3c2c1C` [Compound 16, N-[(3,4-difluorophenyl)methyl]-3,4-dimethyl-pyrido[4′,3′:4,5]thieno[2,3-c]pyridazin-8-amine hydrochloride]: on Human M4, the EC50 was determined as 194 nM and the Emax was determined as 81.5%.
Take `Cc1nnc2sc3c(NCc4ccc(OC(F)(F)F)cc4)nccc3c2c1C` [Compound 11, 3,4-dimethyl-N-[[4-(trifluoromethoxy)phenyl]methyl] pyrido[4′,3′:4,5]thieno[2,3-c]pyridazin-8-amine hydrochloride]: at Human M4, the EC50 was determined as 1030 nM and the Emax turned out to be 72.8%.
Taken in the same sequence, the figures for `Cc1nnc2sc3c(NCc4ccc(C(C)(C)O)cc4)nccc3c2c1C` [Compound 15, 2-[4-[[(3,4-dimethylpyrido[4′,3′:4,5]thieno[2,3-c]pyridazin-8-yl)amino]lmethyl]phenyl]propan-2-ol] were 34.3 nM and 97.4%.
Regarding `Cc1nnc2sc3c(NC4CN(c5ccc(C#N)cn5)C4)nccc3c2c1C` [Compound 22, 6-[3-[(3,4-dimethylpyrido[4′,3′:4,5]thieno[2,3-c]pyridazin-8-yl)amino]azetidin-1-yl]pyridine-3-carbonitrile], on Human M4, the EC50 amounted to 16.9 nM and the Emax turned out to be 117%.
Taken in the same sequence, the figures for `COc1ccc(CNc2nccc3c2sc2nnc(C)c(C)c23)cc1F` [Compound 14, N-[(3-fluoro-4-methoxy-phenyl)methyl]-3,4-dimethylpyrido[4′,3′:4,5]thieno[2,3-c]pyridazin-8-amine hydrochloride] were 14.3 nM and 91.3%.
In the same order, the values of `Cc1cc(C)c2c(n1)sc1c(NC3CCC3)nccc12` [Compound 3, N-cyclobutyl-2,4-dimethylthieno[2,3-b:5,4-c′]dipyridin-8-amine dihydrochloride] are 84.9 nM and 89.8%.
`CCCCCCOc1nsnc1C1=CCCN(C)C1` [xanomeline]: the “effect on psychotic behavioral symptoms such as delusions, suspiciousness, vocal outbursts, and hallucinations” value in series [2] is on record as “reduce psychotic behavioral symptoms”. The “activity in animal models” value in series [3] was “active in animal models”.
Regarding `Cc1cc(C)c2c(n1)sc1c(NCc3ccc(C(C)(C)O)cc3)nccc12` [Compound 26, 2-(4-(((2,4-dimethylthieno[2,3-b:5,4-c′]dipyridin-8-yl)amino)methyl)phenyl)propan-2-ol], on Human M4, the EC50 is 327 nM and the Emax was determined as 101%.
